Source: patent publication US12551463B2, “Dosing of a Bruton's tyrosine kinase inhibitor” (Loxo Oncology, Inc., priority 2019, dated 2026)
Where two headings read alike, the source gives them in different places.

Legend:
[1] = tested on: Richter's transformation; test: Phase 1/2 clinical study, Richter's transformation patients; assay type: in vivo, human; conditions: 6 of 8 patients
Description: The study is an open-label, multi-center study of oral BTK-I to evaluate safety and efficacy as monotherapy and as part of combination therapy in patients with CLL/SLL and NHL who have failed or are intolerant to standard of care. This study includes monotherapy as well as combination treatment parts. The monotherapy part includes Phase 1 dose escalation and dose expansion as well as Phase 2. The combination therapy part is a Phase 1b (safety assessment and expansion) of BTK-I in combination with venetoclax, with or without anti-CD20 therapy. Phase 1 dose escalation will proceed prior to start of Phase 1b or Phase 2. Once a recommended Phase 2 dose (RP2D) is identified in Phase 1, enrollment can commence to the Phase 1b combination therapies and Phase 2 monotherapy cohorts. […]
The primary objective of the Phase 2 is to assess the primary anti-tumor activity of BTK-I based on overall response rate (ORR) and as assessed by the Independent Review Committee. […]
Dosing during Phase 2 will be at the RP2D of 200 mg QD. […] The dose (and schedule) chosen for Phase 2 may be changed by the SRC based on emerging data (e.g., PK, safety, and/or efficacy) as long as the new dose is not greater than the highest dose that has a DLT <33% and is determined to be safe by the SRC in Phase 1. […]

[2] = target: T1, BTK C481S mutant (Homo sapiens, UniProt Q06187, C481S); test: BTK Y223 autophosphorylation in HEK293 cells expressing BTK C481S mutant; assay type: cell-based
T1 construct: expressed in transfected cells
T1 sequence (Q06187 whole entry C481S): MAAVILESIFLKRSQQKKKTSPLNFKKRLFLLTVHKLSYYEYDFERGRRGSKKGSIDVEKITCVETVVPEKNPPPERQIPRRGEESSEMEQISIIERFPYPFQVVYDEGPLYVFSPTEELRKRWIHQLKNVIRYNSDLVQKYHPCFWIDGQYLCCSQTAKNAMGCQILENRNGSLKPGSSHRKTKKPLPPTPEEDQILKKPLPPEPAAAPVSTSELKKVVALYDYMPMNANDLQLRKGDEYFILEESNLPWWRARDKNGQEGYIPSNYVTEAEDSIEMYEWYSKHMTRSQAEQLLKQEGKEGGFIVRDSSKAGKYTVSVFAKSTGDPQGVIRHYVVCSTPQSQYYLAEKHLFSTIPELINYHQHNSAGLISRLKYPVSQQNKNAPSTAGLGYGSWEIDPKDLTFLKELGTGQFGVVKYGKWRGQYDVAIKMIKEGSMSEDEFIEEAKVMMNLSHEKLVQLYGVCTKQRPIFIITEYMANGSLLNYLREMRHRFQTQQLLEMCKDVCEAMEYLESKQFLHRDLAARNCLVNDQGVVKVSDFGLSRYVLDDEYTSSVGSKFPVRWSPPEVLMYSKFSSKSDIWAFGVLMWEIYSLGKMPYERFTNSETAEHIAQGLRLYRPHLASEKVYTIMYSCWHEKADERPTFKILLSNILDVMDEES
Procedure: HEK293 cell lines stably expressing BTK wild type and the mutant form C481S are generated using standard transfection methods. For assessment of cellular inhibition potency, cells are grown in DMEM+10% FBS+1 μg/mL puromycin (complete growth media) at 37° C. in a C02 incubator. Cells are harvested according to standard protocols using TrypLE (Gibco #12604-013), counted, resuspended in complete growth media, and added to 6 well assay plates at […] in 2 mL. Plates are incubated overnight at 37° C. with 5% C02. The following day, cells are treated for 2 hours with BTK-I, prepared as a 6-point dose curve, 1:3 dilution series with final concentrations starting at a maximum concentration of 300 nM and a constant DMSO concentration of 0.5% (v/v). Control wells contain 0.5% (v/v) DMSO alone (no inhibition control). […] Supernatants are quantified by BCA (Pierce #23225) and stored at −80° C. Samples are analyzed by Simple Western (Protein Simple) with anti-phospho-BTK (Y223) (Cell signaling technologies (cst) #5082) and anti-BTK (cst #8547). β-actin is the used as a loading control and detected by regular Western blot with an anti-β-actin antibody (cst #4970). Simple Western results are analyzed with Compass software (Protein Simple). BTK Y223 phosphorylation signal is normalized to total BTK, and IC50 values are calculated using a 4-parameter fit in GraphPad Prism 7.04 software.

COc1ccc(F)cc1C(=O)NCc1ccc(-c2nn([C@@H](C)C(F)(F)F)c(N)c2C(N)=O)cc1 [BTK-I, (S)-5-amino-3-(4-((5-fluoro-2-methoxybenzamido)methyl)phenyl)-1-(1,1,1-trifluoropropane-2-yl)-1H-pyrazole-4-carboxamide]
responses [1]: 75%
IC90 ([2]; read-out: IC90): 79.2 nM
IC90 ([2]; read-out: IC90 translated to total drug in human plasma): 0.824 µg/mL
